# Measurements as given in US20240400564A1 (Syndax Pharmaceuticals, Inc, priority 2021, published 2024).
# Molecular target: T1, human Menin and N-terminal portion of human MLL (amino acids 4-43) (Homo sapiens, UniProt O00255)
# T1 construct: H-FL-Menin diluted to 4 nM in assay buffer
# T1 sequence (O00255 1-610): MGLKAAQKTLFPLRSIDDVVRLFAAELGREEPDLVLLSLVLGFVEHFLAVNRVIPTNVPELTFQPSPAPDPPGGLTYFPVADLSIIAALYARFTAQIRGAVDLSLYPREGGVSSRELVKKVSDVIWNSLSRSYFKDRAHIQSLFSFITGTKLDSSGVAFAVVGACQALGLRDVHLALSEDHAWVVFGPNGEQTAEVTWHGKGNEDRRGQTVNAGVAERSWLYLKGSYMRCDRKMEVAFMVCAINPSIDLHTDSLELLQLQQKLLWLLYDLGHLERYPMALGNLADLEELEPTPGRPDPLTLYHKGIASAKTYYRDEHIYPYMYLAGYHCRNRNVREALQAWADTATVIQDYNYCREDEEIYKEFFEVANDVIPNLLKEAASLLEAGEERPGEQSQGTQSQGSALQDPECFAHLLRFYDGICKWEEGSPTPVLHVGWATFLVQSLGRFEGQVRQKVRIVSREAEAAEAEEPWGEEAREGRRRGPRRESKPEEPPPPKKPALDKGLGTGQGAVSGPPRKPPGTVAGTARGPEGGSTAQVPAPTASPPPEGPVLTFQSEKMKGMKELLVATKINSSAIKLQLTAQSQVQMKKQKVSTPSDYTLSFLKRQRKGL
# Assay: Menin-MLL competition assay (HTRF)
# Assay type: binding
# Conditions: 1 hr incubation
# Source text: Menin-MLL is a competition assay between human Menin and N-terminal portion of human MLL representing amino acids 4-43 of the protein. The interaction between Menin and MLL peptide was monitored by HTRF employing Terbium labeled anti-His6 antibody directed to the N-terminal His6-tag on recombinant Menin and FITC group covalently attached to the MLL peptide. The N-terminal fragment of MLL, retained in all MLL fusion proteins, is involved in the interactions with Menin, and this protein-protein interaction is critical for the MLL fusion proteins mediated leukemogenic transformations.
# For IC50 determination test compounds were prepared as 10 mM DMSO stock solutions. Considering DMSO as the vehicle in the assay system. Lower sub-stocks of 50 μM were prepared from the 10 mM stock solution. To test the compounds in assay, 3.16-fold serial dilutions are made in 100% DMSO. Mid-stock of 50×compounds (50 μM) were serially diluted (3.16 fold) in 100% DMSO in Polypropylene plate. In assay plate 1 micro-litre of the previously prepared compound dilution was stamped. H-FL-Menin diluted to 4 nM in assay buffer (50 mM Tris-HCl, pH 7.4, 50 mM NaCl, freshly prepared 1 mM DTT, 0.01% BSA, 0.005% Triton X-100) was pre-incubated with 8 nM anti-His6-Tb for 30 min at room temperature. FITC-MLL-4-43 was diluted to 2 nM in assay buffer and 25 μL was dispensed into each well of the assay plate followed by addition of 25 μl of pre-incubated H-FL-Menin and anti-His6-Tb mixture. Final concentration H-FL-Menin diluted to 1 nM in assay plate with 2 nM anti-His6-Tb and 1 nM FITC-MLL-4-43. After 1 hr incubation at room temperature, the HTRF signal was measured on the Spark multi-label plate reader. Resulting data were captured as a ratio of RFU520/RFU485×1000. The max values were obtained from 0% inhibition in presence of 2% DMSO and the min. values were 100% inhibition in presence of 1 μM reference compound.
row,Structure (SMILES),IC50 [µM]
1,"CC(C)S(=O)(=O)N[C@@H]1CC[C@@H](CN2CCC3(CC2)CN(c2ncncc2Oc2ccc(F)cc2C(=O)N2[C@H](C)COC[C@@H]2C)C3)OC1 [Example 25, N-((3R,6S)-6-((2-(5-(2-((3S,5R)-3,5-Dimethylmorpholine-4-carbonyl)-4-fluorophenoxy)pyrimidin-4-yl)-2,7-diazaspiro[3.5]nonan-7-yl)methyl)tetrahydro-2H-pyran-3-yl)propane-2-sulfonamide]",< 0.1
2,"CCN(C(=O)c1cc(F)ccc1Oc1cncnc1N1CC2(CCN(C[C@@H]3CC[C@@H](NC(=O)NCC4CC4)CO3)CC2)C1)C(C)C [Example 42, 2-((4-(7-(((2S,5R)-5-(3-(Cyclopropylmethyl)ureido)tetrahydro-2H-pyran-2-yl)methyl)-2,7-diazaspiro[3.5]nonan-2-yl)pyrimidin-5-yl)oxy)-N-ethyl-5-fluoro-N-isopropylbenzamide]",< 0.1
3,"CCN(C(=O)c1cc(F)ccc1Oc1cncnc1N1CC2(CCN(C[C@@H]3CC[C@@H](NS(=O)(=O)CCOC)CO3)CC2)C1)C(C)C [Example 8, N-Ethyl-5-fluoro-N-isopropyl-2-((4-(7-(((2S,5R)-5-((2-methoxyethyl)sulfonamido)tetrahydro-2H-pyran-2-yl)methyl)-2,7-diazaspiro[3.5]nonan-2-yl)pyrimidin-5-yl)oxy)benzamide]",< 0.1
4,"C[C@@H]1COC[C@H](C)N1C(=O)c1cc(F)ccc1Oc1cncnc1N1CC2(CCN(C[C@@H]3CC[C@@H](NS(=O)(=O)C4COC4)CO3)CC2)C1 [Example 27, N-((3R,6S)-6-((2-(5-(2-((3S,5R)-3,5-Dimethylmorpholine-4-carbonyl)-4-fluorophenoxy)pyrimidin-4-yl)-2,7-diazaspiro[3.5]nonan-7-yl)methyl)tetrahydro-2H-pyran-3-yl)oxetane-3-sulfonamide]",< 0.1
5,"C[C@@H]1COC[C@@H](C)N1C(=O)c1cc(F)ccc1Oc1cncnc1N1CC2(CCN(C[C@@H]3CC[C@@H](NS(C)(=O)=O)CO3)CC2)C1 [Example 28, N-((3R,6S)-6-((2-(5-(2-((3R,5R)-3,5-Dimethylmorpholine-4-carbonyl)-4-fluorophenoxy)pyrimidin-4-yl)-2,7-diazaspiro[3.5]nonan-7-yl)methyl)tetrahydro-2H-pyran-3-yl)methanesulfonamide]",< 0.1
6,"C[C@@H]1COC[C@H](C)N1C(=O)c1cc(F)ccc1Oc1cncnc1N1CC2(CCN(C[C@@H]3CC[C@@H](NS(C)(=O)=O)CO3)CC2)C1 [Example 23, N-((3R,6S)-6-((2-(5-(2-((3S,5R)-3,5-Dimethylmorpholine-4-carbonyl)-4-fluorophenoxy)pyrimidin-4-yl)-2,7-diazaspiro[3.5]nonan-7-yl)methyl)tetrahydro-2H-pyran-3-yl)methanesulfonamide]",< 0.1
7,"C[C@@H]1COC[C@H](C)N1C(=O)c1cc(F)ccc1Oc1cncnc1N1CC2(CCN(C[C@@H]3CC[C@@H](NS(=O)(=O)C4CC4)CO3)CC2)C1 [Example 26, N-((3R,6S)-6-((2-(5-(2-((3S,5R)-3,5-Dimethylmorpholine-4-carbonyl)-4-fluorophenoxy)pyrimidin-4-yl)-2,7-diazaspiro[3.5]nonan-7-yl)methyl)tetrahydro-2H-pyran-3-yl)cyclopropanesulfonamide]",< 0.1
8,"C[C@H]1COCCN1C(=O)c1cc(F)ccc1Oc1cncnc1N1CC2(CCN(C[C@@H]3CC[C@@H](NS(=O)(=O)C4CC4)CO3)CC2)C1 [Example 40, N-((3R,6S)-6-((2-(5-(4-Fluoro-2-((S)-3-methylmorpholine-4-carbonyl)phenoxy)pyrimidin-4-yl)-2,7-diazaspiro[3.5]nonan-7-yl)methyl)tetrahydro-2H-pyran-3-yl)cyclopropanesulfonamide]",< 0.1
9,"CCS(=O)(=O)N[C@@H]1CC[C@@H](CN2CCC3(CC2)CN(c2ncncc2Oc2ccc(F)cc2C(=O)N(C(C)C)C2COC2)C3)OC1 [Example 48, 2-((4-(7-(((2S,5R)-5-(Ethylsulfonamido)tetrahydro-2H-pyran-2-yl)methyl)-2,7-diazaspiro[3.5]nonan-2-yl)pyrimidin-5-yl)oxy)-5-fluoro-N-isopropyl-N-(oxetan-3-yl)benzamide]",< 0.1
10,"CCS(=O)(=O)N[C@@H]1CC[C@@H](CN2CCC3(CC2)CN(c2ncncc2Oc2ccc(F)cc2C(=O)N(CCOC)C(C)C)C3)OC1 [Example 35, 2-((4-(7-(((2S,5R)-5-(Ethylsulfonamido)tetrahydro-2H-pyran-2-yl)methyl)-2,7-diazaspiro[3.5]nonan-2-yl)pyrimidin-5-yl)oxy)-5-fluoro-N-isopropyl-N-(2-methoxyethyl)benzamide]",< 0.1
11,"C[C@@H]1COC[C@@H](C)N1C(=O)c1cc(F)ccc1Oc1cncnc1N1CC2(CCN(C[C@@H]3CC[C@@H](NS(=O)(=O)C4CC4)CO3)CC2)C1 [Example 31, N-((3R,6S)-6-((2-(5-(2-((3R,5R)-3,5-dimethylmorpholine-4-carbonyl)-4-fluorophenoxy)pyrimidin-4-yl)-2,7-diazaspiro[3.5]nonan-7-yl)methyl)tetrahydro-2H-pyran-3-yl)cyclopropanesulfonamide]",< 0.1
12,"CC(C)S(=O)(=O)N[C@@H]1CC[C@@H](CN2CCC3(CC2)CN(c2ncncc2Oc2ccc(F)cc2C(=O)N2[C@H](C)COC[C@H]2C)C3)OC1 [Example 30, N-((3R,6S)-6-((2-(5-(2-((3R,5R)-3,5-Dimethylmorpholine-4-carbonyl)-4-fluorophenoxy)pyrimidin-4-yl)-2,7-diazaspiro[3.5]nonan-7-yl)methyl)tetrahydro-2H-pyran-3-yl)propane-2-sulfonamide]",< 0.1
13,"C[C@@H]1COC[C@@H](C)N1C(=O)c1cc(F)ccc1Oc1cncnc1N1CC2(CCN(C[C@@H]3CC[C@@H](NS(=O)(=O)C4COC4)CO3)CC2)C1 [Example 32, N-((3R,6S)-6-((2-(5-(2-((3R,5R)-3,5-Dimethylmorpholine-4-carbonyl)-4-fluorophenoxy)pyrimidin-4-yl)-2,7-diazaspiro[3.5]nonan-7-yl)methyl)tetrahydro-2H-pyran-3-yl)oxetane-3-sulfonamide]",< 0.1
14,"CC(C)N(C(=O)c1cc(F)ccc1Oc1cncnc1N1CC2(CCN(C[C@@H]3CC[C@@H](NC(=O)OC(C)(C)C)CO3)CC2)C1)C1CC1 [Example 17, tert-Butyl ((3R,6S)-6-((2-(5-(2-(cyclopropyl(isopropyl)carbamoyl)-4-fluorophenoxy)pyrimidin-4-yl)-2,7-diazaspiro[3.5]nonan-7-yl)methyl)tetrahydro-2H-pyran-3-yl)carbamate]",< 0.1
15,"CCN(C(=O)c1cc(F)ccc1Oc1cncnc1N1CC2(CCN(C[C@@H]3CC[C@@H](NS(=O)(=O)C4COC4)CO3)CC2)C1)C(C)C [Example 5, N-Ethyl-5-fluoro-N-isopropyl-2-((4-(7-(((2S,5R)-5-(oxetane-3-sulfonamido)tetrahydro-2H-pyran-2-yl)methyl)-2,7-diazaspiro[3.5]nonan-2-yl)pyrimidin-5-yl)oxy)benzamide]",< 0.1

# System: MLLr leukemia cell line MV4-11
# Assay: Cell proliferation assay MV4;11 (CellTiter-Glo, 72 hours)
# Assay type: cell-based
# Conditions: Homo sapiens; MV4-11 cells, 72 hours, CellTiter-Glo; read-out: MV4; 11 IC50
# How it was run: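 Cells in IMDM/10% FBS, seeded from a 15,000 cells/ml suspension, were exposed for 72 h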
row,Structure (SMILES),IC50 [µM]
1,"CC(C)N(C(=O)c1cc(F)ccc1Oc1cncnc1N1CC2(CCN(C[C@@H]3CC[C@@H](NS(=O)(=O)c4cnn(C)c4Cl)CO3)CC2)C1)C(C)C [Example 82, 2-((4-(7-(((2S,5R)-5-((5-Chloro-1-methyl-1H-pyrazole)-4-sulfonamido)tetrahydro-2H-pyran-2-yl)methyl)-2,7-diazaspiro[3.5]nonan-2-yl)pyrimidin-5-yl)oxy)-5-fluoro-N,N-diisopropylbenzamide]",< 0.1

# Molecular target: hERG (Homo sapiens, UniProt Q12809)
# Sequence (Q12809 whole entry): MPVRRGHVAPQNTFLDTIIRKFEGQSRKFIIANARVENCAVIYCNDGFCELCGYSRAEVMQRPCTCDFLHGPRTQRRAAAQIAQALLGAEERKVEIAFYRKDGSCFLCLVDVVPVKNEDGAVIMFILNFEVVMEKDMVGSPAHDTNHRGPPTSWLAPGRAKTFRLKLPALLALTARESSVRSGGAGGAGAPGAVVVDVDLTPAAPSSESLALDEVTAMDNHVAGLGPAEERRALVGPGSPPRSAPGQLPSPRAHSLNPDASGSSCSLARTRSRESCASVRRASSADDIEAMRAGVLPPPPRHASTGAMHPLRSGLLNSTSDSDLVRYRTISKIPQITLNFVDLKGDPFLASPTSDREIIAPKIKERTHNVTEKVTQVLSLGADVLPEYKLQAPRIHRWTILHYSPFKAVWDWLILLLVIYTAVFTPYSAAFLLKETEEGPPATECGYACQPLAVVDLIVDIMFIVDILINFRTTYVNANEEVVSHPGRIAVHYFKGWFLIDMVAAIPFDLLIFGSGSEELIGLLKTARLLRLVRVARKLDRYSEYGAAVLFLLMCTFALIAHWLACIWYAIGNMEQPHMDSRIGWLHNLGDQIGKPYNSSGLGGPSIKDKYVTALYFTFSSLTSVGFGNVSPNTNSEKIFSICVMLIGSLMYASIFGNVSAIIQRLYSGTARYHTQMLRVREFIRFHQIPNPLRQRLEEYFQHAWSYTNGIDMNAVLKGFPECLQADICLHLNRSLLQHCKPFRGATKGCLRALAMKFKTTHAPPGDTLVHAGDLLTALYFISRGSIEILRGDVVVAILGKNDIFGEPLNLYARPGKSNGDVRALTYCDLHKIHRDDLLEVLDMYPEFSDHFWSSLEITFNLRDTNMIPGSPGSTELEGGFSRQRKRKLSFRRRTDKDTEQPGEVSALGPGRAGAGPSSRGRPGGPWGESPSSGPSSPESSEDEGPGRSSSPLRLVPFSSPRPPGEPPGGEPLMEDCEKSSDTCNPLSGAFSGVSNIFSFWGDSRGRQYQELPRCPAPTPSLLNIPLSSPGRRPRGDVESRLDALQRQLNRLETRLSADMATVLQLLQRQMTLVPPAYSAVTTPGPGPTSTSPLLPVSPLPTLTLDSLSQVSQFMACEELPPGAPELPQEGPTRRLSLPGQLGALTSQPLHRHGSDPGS
# Assay: Patch clamp assay (hERG tail currents, whole-cell)
# Conditions: 10 μM compound
# Description: The 35 mm culture dishes upon which cells were seeded at a density allowing single cells to be recorded were placed on the dish holder of the microscope and continuously perfused (at approximately 1 mL/min) with the bath solution described in section 4.6. All solutions applied to cells including the pipette solution were maintained at room temperature (19° C. to 30° C.). After formation of a Gigaohm seal between the patch electrodes and individual hERG stably transfected HEK 293 cells (pipette resistance range: 2.0 MS to 7.0 MS; seal resistance range: >1GΩ) the cell membrane across the pipette tip was ruptured to assure electrical access to the cell interior (whole-cell patch-configuration). In case the quality of the seal was poor, the process of seal formation was repeated with a different cell and a new pipette. As soon as a stable seal could be established, hERG outward tail currents were measured upon depolarization of the cell membrane to +20 mV for 2 s (activation of channels) from a holding potential of −80 mV and upon subsequent repolarization to −40 mV for 3 s. This voltage protocol (as shown below) was run at least 10 times at intervals of 10 s. If current density was judged to be too low for measurement, another cell was recorded.
# During wash-in of the test item the voltage protocol indicated above was run continuously again at 10 s intervals until the steady-state level of block was reached.
# The IC50 was determined by fitting the dose response curve with a 2-parameter logistic function (amax=100%).
row,Structure (SMILES),hERG % Remaining
1,"CC(C)N(C(=O)c1cc(F)ccc1Oc1cncnc1N1CC2(CCN(C[C@@H]3CC[C@@H](NS(=O)(=O)c4cnn(C)c4Cl)CO3)CC2)C1)C(C)C [Example 82, 2-((4-(7-(((2S,5R)-5-((5-Chloro-1-methyl-1H-pyrazole)-4-sulfonamido)tetrahydro-2H-pyran-2-yl)methyl)-2,7-diazaspiro[3.5]nonan-2-yl)pyrimidin-5-yl)oxy)-5-fluoro-N,N-diisopropylbenzamide]",++ (233% and ≤66%)

# Same assay, conditions: 30 μM compound
row,Structure (SMILES),hERG % Remaining
1,"CC(C)N(C(=O)c1cc(F)ccc1Oc1cncnc1N1CC2(CCN(C[C@@H]3CC[C@@H](NS(=O)(=O)c4cnn(C)c4Cl)CO3)CC2)C1)C(C)C [Example 82, 2-((4-(7-(((2S,5R)-5-((5-Chloro-1-methyl-1H-pyrazole)-4-sulfonamido)tetrahydro-2H-pyran-2-yl)methyl)-2,7-diazaspiro[3.5]nonan-2-yl)pyrimidin-5-yl)oxy)-5-fluoro-N,N-diisopropylbenzamide]",+ (<33%)
